{"source": "patent US11339171B2", "about": "“MDM2 inhibitors” (Gan & Lee Pharmaceuticals, priority 2017, dated 2022)", "data": [{"target": "T1, MDM2 (Homo sapiens, UniProt Q00987)", "T1 construct": "made in house", "T1 sequence (Q00987 whole entry)": "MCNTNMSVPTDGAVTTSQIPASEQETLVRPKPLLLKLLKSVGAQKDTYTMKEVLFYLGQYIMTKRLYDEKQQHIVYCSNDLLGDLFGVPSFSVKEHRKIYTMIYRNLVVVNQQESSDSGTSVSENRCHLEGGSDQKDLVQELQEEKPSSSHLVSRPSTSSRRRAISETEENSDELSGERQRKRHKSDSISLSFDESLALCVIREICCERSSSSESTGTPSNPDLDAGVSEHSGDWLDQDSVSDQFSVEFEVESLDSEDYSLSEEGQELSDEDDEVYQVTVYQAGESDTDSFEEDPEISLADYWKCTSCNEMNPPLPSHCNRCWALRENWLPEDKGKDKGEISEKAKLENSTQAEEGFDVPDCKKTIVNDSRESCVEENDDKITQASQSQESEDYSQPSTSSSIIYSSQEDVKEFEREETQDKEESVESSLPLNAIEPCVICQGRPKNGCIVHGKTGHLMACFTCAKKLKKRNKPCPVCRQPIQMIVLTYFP", "experiment": "Inhibition test of MDM2-P53 (GST-MDM2, Biotin-P53, Anti-GST-Tb, SA-XL665)", "assay_type": "binding", "settings": "not given", "description": "(§1) Experimental purpose: To determine the inhibitory activities of the compounds of the present invention on MDM2.\n(§2) The present experiment uses the following assay methods/instruments/reagents:\n(§3) Buffer: 1×PBS+0.1% BSA+5 mM DTT; MDM2 Buffer: Buffer+1 mM AEBSF\n(§4) GST-MDM2: The final concentration is 4 nM, and it is required to formulate a 20 nM (5×) solution. A mother liquor is diluted by 3500 folds, wherein the mother liquor is 10-fold diluted first, and then 350-fold diluted.\n(§5) Anti-GST-Tb: The final concentration is 2×, and a mother liquor is diluted by 50 folds.\n(§6) MIX: GST-MDM2, Biotin-P53, SA-XL665 and Anti-GST-Tb were mixed according to a ratio of 4:4:5:5.\n(§7) Sample: Preparation of a sample (10 mM in DMSO) solution: a. 3 μL sample+7 μL DMSO+20 μL DMSO were formulated to give an initial concentration of 1 mM and mixed well; b. in plate 1, twelve 5-fold serial dilutions (sequentially prepared by adding 10 μL of the last sample to 40 μL DMSO) were prepared and mixed well, individually; c. plate 2 was taken, 45 μL of Buffer was added to each well, and 5 μL of dilution at each concentration was taken from plate 1 and added to the corresponding well in plate 2 (the concentration in well 1 was 100 μM), and mixed well.\n(§8) 1. 18 μL of MIX was added to a 384-well plate, and centrifugation was performed at 4500 rpm for 5 min.\n(§9) 2. 2 μL of sample was added correspondingly to each well, the resultant was centrifuged at 25° C. and 4500 rpm for 5 min, and shaked at 25° C. for 90 min on a shaker.\n(§10) Readings were obtained from the Microplate reader, and data was processed by Graphpad Prism 6.0.", "units": {"IC50": "nM"}, "values": [{"smiles": "COc1ncc(-c2nc3c(n2C(C)C)[C@@]2(C(=O)Nc4cc(Cl)ccc42)N(c2ccc(OC)c(Cl)c2)C3=O)c(OC)n1", "note": "[Example S-48, (S)-6-chloro-5′-(3-chloro-4-methoxyphenyl)-2′-(2,4-dimethoxypyrimidin-5-yl)-3′-isopropyl-3′H-spiro[dihydroindole-3,4′-pyrrolo[3,4-d]imidazole]-2,6′(5′H)-dione]", "IC50": 1.46}, {"smiles": "CCOc1cc(OC)c(-c2nc3c(n2C(C)C)[C@]2(C(=O)Nc4cc(Cl)ccc42)N(c2cc(Cl)cnc2C)C3=O)cn1", "note": "[Example R-96, (R)-6-chloro-5′-(5-chloro-2-methylpyridin-3-yl)-2′-(6-ethoxy-4-methoxypyridin-3-yl)-3′-isopropyl-3′H-spiro[dihydroindole-3,4′-pyrrolo[3,4-d]imidazole]-2,6′(5′H)-dione]", "IC50": 151}, {"smiles": "COc1cc(OC)c(-c2nc3c(n2C(C)C)[C@]2(C(=O)Nc4cc(Cl)ccc42)N(c2ccc(C(N)=O)c(Cl)c2)C3=O)cn1", "note": "[Example R-65, (R)-2-chloro-4-(6-chloro-2′-(4,6-dimethoxypyridin-3-yl)-3′-isopropyl-2,6′-dioxo-3′,6′-dihydro-5′H-spiro[dihydroindole-3,4′-pyrrolo[3,4-d]imidazole]-5′-yl)benzamide]", "IC50": 498}, {"smiles": "CCOc1cc(OC)c(-c2nc3c(n2C(C)C)[C@]2(C(=O)Nc4cc(Cl)ccc42)N(c2cccc(Cl)c2)C3=O)cn1", "note": "[Example R-102, (R)-6-chloro-5′-(3-chlorophenyl)-2′-(6-ethoxy-4-methoxypyridin-3-yl)-3′-isopropyl-3′H-spiro[dihydroindole-3,4′-pyrrolo[3,4-d]imidazole]-2,6′(5′H)-dione]", "IC50": 413}, {"smiles": "COc1cc(C(C)C)ccc1-c1nc2c(n1C(C)C)[C@@]1(C(=O)Nc3cc(Cl)ccc31)N(c1cccc(Cl)c1)C2=O", "note": "[Example S-93, (S)-6-chloro-5′-(3-chlorophenyl)-3′-isopropyl-2′-(4-isopropyl-2-methoxyphenyl)-3′H-spiro[dihydroindole-3,4′-pyrrolo[3,4-d]imidazole]-2,6′(5′H)-dione]", "IC50": 3.89}, {"smiles": "CCOc1ccc(-c2nc3c(n2C(C)C)[C@]2(C(=O)Nc4cc(Cl)ccc42)N(c2cccc(Cl)c2)C3=O)c(OC)c1", "note": "[Example R-100, (R)-6-chloro-5′-(3-chlorophenyl)-2′-(4-ethoxy-2-methoxyphenyl)-3′-isopropyl-3′H-spiro[dihydroindole-3,4′-pyrrolo[3,4-d]imidazole]-2,6′(5′H)-dione]", "IC50": 633}, {"smiles": "CCOc1ccc(-c2nc3c(n2C(C)C)[C@]2(C(=O)Nc4cc(Cl)ccc42)N(c2cc(Cl)ccc2F)C3=O)c(OC)c1", "note": "[Example R-94, (R)-6-chloro-5′-(5-chloro-2-fluorophenyl)-2′-(4-ethoxy-2-methoxyphenyl)-3′-isopropyl-3′H-spiro[dihydroindole-3,4′-pyrrolo[3,4-d]imidazole]-2,6′(5′H)-dione]", "IC50": 840}, {"smiles": "COc1cc(C(C)(C)C)ccc1-c1nc2c(n1C(C)C)[C@]1(C(=O)Nc3cc(Cl)ccc31)N(c1cc(Cl)ccc1C)C2=O", "note": "[Example R-101, (R)-2′-(4-(tert-butyl)-2-methoxyphenyl)-6-chloro-5′-(5-chloro-2-methylphenyl)-3′-isopropyl-3′H-spiro[dihydroindole-3,4′-pyrrolo[3,4-d]imidazole]-2,6′(5′H)-dione]", "IC50": 2000}, {"smiles": "COc1cc(OC)c(-c2nc3c(n2C(C)C)[C@]2(C(=O)Nc4cc(Cl)ccc42)N(c2cc(Cl)ccc2F)C3=O)cn1", "note": "[Example R-133, (R)-6-chloro-5′-(5-chloro-2-fluorophenyl)-2′-(4,6-dimethoxypyridin-3-yl)-3′-isopropyl-3′H-spiro[dihydroindole-3,4′-pyrrolo[3,4-d]imidazole]-2,6′(5′H)-dione]", "IC50": 1110}, {"smiles": "COc1ccc(-c2nc3c(n2C(C)C)[C@]2(C(=O)Nc4cc(Cl)ccc42)N(c2cc(Cl)ccc2C)C3=O)cc1", "note": "[Example R-64, (R)-6-chloro-5′-(5-chloro-2-methylphenyl)-3′-isopropyl-2′-(4-methoxyphenyl)-3′H-spiro[dihydroindole-3,4′-pyrrolo[3,4-d]imidazole]-2,6′(5′H)-dione]", "IC50": 1020}, {"smiles": "COc1cc(F)c(-c2nc3c(n2C(C)C)[C@@]2(C(=O)Nc4cc(Cl)ccc42)N(c2cc(Cl)ccc2C)C3=O)c(OC)c1", "note": "[Example S-130, (S)-6-chloro-5′-(5-chloro-2-methylphenyl)-2′-(2-fluoro-4,6-dimethoxyphenyl)-3′-isopropyl-3′H-spiro[dihydroindole-3,4′-pyrrolo[3,4-d]imidazole]-2,6′(5′H)-dione]", "IC50": 5.59}, {"smiles": "COc1cc(C(F)(F)F)ncc1-c1nc2c(n1C(C)C)[C@]1(C(=O)Nc3cc(Cl)ccc31)N(c1cc(Cl)cnc1C)C2=O", "note": "[Example R-152, (R)-6-chloro-5′-(5-chloro-2-methylpyridin-3-yl)-3′-isopropyl-2′-(4-methoxy-6-(trifluoromethyl)pyridine-3-yl)-3′H-spiro[dihydroindole-3,4′-pyrrolo[3,4-d]imidazole]-2,6′(5′H)-dione]", "IC50": 134}, {"smiles": "COc1ccc(N2C(=O)c3nc(-c4ccccc4OC)n(C(C)C)c3[C@]23C(=O)Nc2cc(Cl)ccc23)cc1Cl", "note": "[Example R-63, (R)-6-chloro-5′-(3-chloro-4-methoxyphenyl)-3′-isopropyl-2′-(2-methoxyphenyl)-3′H-spiro[dihydroindole-3,4′-pyrrolo[3,4-d]imidazole]-2,6′(5′H)-dione]", "IC50": 537}]}, {"target": "T1, MDM2", "experiment": "Inhibition test of MDM2-P53 (GST-MDM2, Biotin-P53, Anti-GST-Tb, SA-XL665)", "assay_type": "binding", "settings": "labels are Example numbers; the compounds with S-configuration are meant", "description": "as §1, §2, §3, §4, §5, §6, §7, §8, §9, §10", "values": [{"smiles": "COc1cc(C#N)ccc1-c1nc2c(n1C(C)C)C1(C(=O)Nc3cc(Cl)ccc31)N(c1cccc(Cl)c1)C2=O", "note": "(stereo not shown) [Example 128]", "inhibitory effect on MDM2 compared with positive control compound HDM201": "better"}, {"smiles": "COc1cc(N)ccc1-c1nc2c(n1C(C)C)C1(C(=O)Nc3cc(Cl)ccc31)N(c1cc(Cl)ccc1F)C2=O", "note": "(stereo not shown) [Example 66, 2′-(4-amino-2-methoxyphenyl)-6-chloro-5′-(5-chloro-2-fluorophenyl)-3′-isopropyl-3′H-spiro[dihydroindole-3,4′-pyrrolo[3,4-d]imidazole]-2,6′(5′H)-dione]", "inhibitory effect on MDM2 compared with positive control compound HDM201": "better"}, {"smiles": "COc1ccc(N2C(=O)c3nc(-c4ccccc4OC)n(C(C)C)c3C23C(=O)Nc2cc(Cl)ccc23)cc1Cl", "note": "(stereo not shown) [Example 63, 6-chloro-5′-(3-chloro-4-methoxyphenyl)-3′-isopropyl-2′-(2-methoxyphenyl)-3′H-spiro[dihydroindole-3,4′-pyrrolo[3,4-d]imidazole]-2,6′(5′H)-dione]", "inhibitory effect on MDM2 compared with positive control compound HDM201": "better"}, {"smiles": "CNC(=O)c1ccc(OC)c(-c2nc3c(n2C(C)C)C2(C(=O)Nc4cc(Cl)ccc42)N(c2cc(Cl)ccc2C)C3=O)c1", "note": "(stereo not shown) [Example 21, 3-(6-chloro-5′-(5-chloro-2-methylphenyl)-3′-isopropyl-2,6′-dioxo-5′,6′-dihydro-3′H-spiro[dihydroindole-3,4′-pyrrolo[3,4-d]imidazole]-2′-yl)-4-methoxy-N-methylbenzamide]", "inhibitory effect on MDM2 compared with positive control compound HDM201": "better"}, {"smiles": "COc1ccc(CC(=O)N(C)C)cc1-c1nc2c(n1C(C)C)C1(C(=O)Nc3cc(Cl)ccc31)N(c1cc(Cl)ccc1C)C2=O", "note": "(stereo not shown) [Example 70, 2-(3-(6-chloro-5′-(5-chloro-2-methylphenyl)-3′-isopropyl-2,6′-dioxo-5′,6′-dihydro-3′H-spiro[dihydroindole-3,4′-pyrrolo[3,4-d]imidazole]-2′-yl)-4-methoxyphenyl)-N,N-dimethylacetamide]", "inhibitory effect on MDM2 compared with positive control compound HDM201": "better"}, {"smiles": "COc1cc(N)ccc1-c1nc2c(n1C(C)C)C1(C(=O)Nc3cc(Cl)ccc31)N(c1cc(F)cc(Cl)c1)C2=O", "note": "(stereo not shown) [Example 67, 2′-(4-amino-2-methoxyphenyl)-6-chloro-5′-(3-chloro-5-fluorophenyl)-3′-isopropyl-3′H-spiro[dihydroindole-3,4′-pyrrolo[3,4-d]imidazole]-2,6′(5′H)-dione]", "inhibitory effect on MDM2 compared with positive control compound HDM201": "better"}, {"smiles": "COc1cccc(OC)c1-c1nc2c(n1C(C)C)C1(C(=O)Nc3cc(Cl)ccc31)N(c1cc(Cl)ccc1C)C2=O", "note": "(stereo not shown) [Example 79, 6-chloro-5′-(5-chloro-2-methylphenyl)-2′-(2,6-dimethoxyphenyl)-3′-isopropyl-3′H-spiro[dihydroindole-3,4′-pyrrolo[3,4-d]imidazole]-2,6′(5′H)-dione]", "inhibitory effect on MDM2 compared with positive control compound HDM201": "better"}, {"smiles": "COc1cc(OCCO)ccc1-c1nc2c(n1C(C)C)C1(C(=O)Nc3cc(Cl)ccc31)N(c1cc(Cl)ccc1C)C2=O", "note": "(stereo not shown) [Example 148, 6-chloro-5′-(5-chloro-2-methylphenyl)-2′-(4-(2-hydroxyethoxy)-2-methoxyphenyl)-3′-isopropyl-3′H-spiro[dihydroindole-3,4′-pyrrolo[3,4-d]imidazole]-2,6′(5′H)-dione]", "inhibitory effect on MDM2 compared with positive control compound HDM201": "better"}, {"smiles": "COc1nc(N(C)C)ncc1-c1nc2c(n1C(C)C)C1(C(=O)Nc3cc(Cl)ccc31)N(c1cc(Cl)cnc1C)C2=O", "note": "(stereo not shown) [Example 135, 6-chloro-5′-(5-chloro-2-methylpyridin-3-yl)-2′-(2-(dimethylamino)-4-methoxypyrimidin-5-yl)-3′-isopropyl-3′H-spiro[dihydroindole-3,4′-pyrrolo[3,4-d]imidazole]-2,6′(5′H)-dione]", "inhibitory effect on MDM2 compared with positive control compound HDM201": "better"}]}]}
